Data taken from patent US20210128534A1, “DRUG DELIVERY SYSTEMS” (YISSUM RESEARCH DEVELOPMENT COMPANY OF THE HEBREW …, priority 2018, published 2021).

Assays:
[1] = Dexamethasone palmitate solubility in FDA approved oils for ophthalmic use; assay type: physicochemical
Method: 8.1 Solubility in FDA Approved Oils for Ophthalmic Use
Dexamethasone palmitate solubility was assessed in mineral oil, castor oil and MCT.

[2] = Reconstitution stability of lyophilized tacrolimus NCs in isotonic aqueous solution; assay type: physicochemical; conditions: room temperature
[3] = cited from earlier work

## CCCCCCCCCCCCCCCC(=O)OCC(=O)[C@@]1(O)[C@H](C)C[C@H]2[C@@H]3CCC4=CC(=O)C=C[C@]4(C)[C@@]3(F)[C@@H](O)C[C@@]21C [Dexamethasone, Dexamethasone palmitate]
[1]; solubility in Castor oil
  Concentration: 33600 µg/mL
[1]; solubility in MCT
  Concentration: 46600 µg/mL
[1]; solubility in Mineral oil
  Concentration: 1300 µg/mL

## C=CC[C@@H]1/C=C(\C)C[C@H](C)C[C@H](OC)[C@H]2O[C@@](O)(C(=O)C(=O)N3CCCC[C@H]3C(=O)O[C@H](/C(C)=C/[C@@H]3CC[C@@H](O)[C@H](OC)C3)[C@H](C)[C@@H](O)CC1=O)[C@H](C)C[C@@H]2OC [Tacrolimus]
[2]
  time the active remained stable in aqueous formulation: at least 2 weeks

## Cyclosporine A [CsA]
[3]; equivalent to 1 ng/mg
  skin levels reported to be active for psoriasis: 1000 ng/g
[3]; human patients with psoriasis, 12-hour trough
  CsA concentration associated with good clinical response: higher than 100 ng/ml
